From ChEMBL document CHEMBL1146636, “Synthesis and in vitro activity of novel isoxazolyl tetrahydropyridinyl oxazolidinone antibacterial agents” (2003)
In brackets after ≈: the same amount, converted by molar mass.

Experiments:
Type in all cases: functional
Enterococcus faecium [1] = test: In vitro antibacterial activity against vancomycin-resistant Enterococcus faecium 2164 (VRE.3)
Enterococcus faecalis [2] = test: In vitro antibacterial activity against Enterococcus faecalis 29212A (E.f.1)
Enterococcus faecalis [3] = test: In vitro antibacterial activity against Enterococcus faecalis EFS008 (E.f.2)
Enterococcus faecium [4] = test: In vitro antibacterial activity against vancomycin-resistant Enterococcus faecium (VRE.1)
Enterococcus faecium [5] = test: In vitro antibacterial activity against vancomycin-resistant Enterococcus faecium 2006 (VRE.2)
Staphylococcus aureus [6] = test: In vitro antibacterial activity against Staphylococcus aureus 77 (S.a.2)
Staphylococcus aureus [7] = test: In vitro antibacterial activity against Staphylococcus aureus 29213A (S.a.3)
Staphylococcus aureus [8] = test: In vitro antibacterial activity against Staphylococcus aureus 6538p (S.a.1)
Staphylococcus aureus [9] = test: In vitro antibacterial activity against methicillin-resistant Staphylococcus aureus 241 (MRSA)
[10] = test system: Staphylococcus epidermidis; test: In vitro antibacterial activity against Staphylococcus epidermidis Q004 (S.e.1)
[11] = test system: Staphylococcus epidermidis; test: In vitro antibacterial activity against Staphylococcus epidermidisMR 887E (S. e. MR)

| Structure (SMILES) | MIC (Enterococcus faecium [1]) [µg/mL] | MIC (Enterococcus faecalis [2]) [µg/mL] | MIC (Enterococcus faecalis [3]) [µg/mL] | MIC (Enterococcus faecium [4]) [µg/mL] | MIC (Enterococcus faecium [5]) [µg/mL] | MIC (Staphylococcus aureus [6]) [µg/mL] | MIC (Staphylococcus aureus [7]) [µg/mL] | MIC (Staphylococcus aureus [8]) [µg/mL] | MIC (Staphylococcus aureus [9]) [µg/mL] | MIC [10] [µg/mL] | MIC [11] [µg/mL] |
| --- | --- | --- | --- | --- | --- | --- | --- | --- | --- | --- | --- |
| CC(=O)NC[C@H]1CN(c2ccc(N3CC=C(c4conc4Cl)CC3)c(F)c2)C(=O)O1 | 8 (≈ 18.4 µM) | 8 (≈ 18.4 µM) | 8 (≈ 18.4 µM) | 8 (≈ 18.4 µM) | 8 (≈ 18.4 µM) | 2 (≈ 4.6 µM) | 8 (≈ 18.4 µM) | 2 (≈ 4.6 µM) | 2 (≈ 4.6 µM) | 2 (≈ 4.6 µM) | 8 (≈ 18.4 µM) |
| CC(=O)NC[C@H]1CN(c2ccc(N3CC=C(c4oncc4C(=O)N(C)C)CC3)c(F)c2)C(=O)O1 | 8 (≈ 17 µM) | 8 (≈ 17 µM) | 8 (≈ 17 µM) | 8 (≈ 17 µM) | 8 (≈ 17 µM) | 8 (≈ 17 µM) | 4 (≈ 8.48 µM) | 4 (≈ 8.48 µM) | 8 (≈ 17 µM) | 2 (≈ 4.24 µM) | 8 (≈ 17 µM) |
| CC(=O)NC[C@H]1CN(c2ccc(N3CC=C(c4oncc4C)CC3)c(F)c2)C(=O)O1 | 2 (≈ 4.83 µM) | 4 (≈ 9.65 µM) | 4 (≈ 9.65 µM) | 2 (≈ 4.83 µM) | 2 (≈ 4.83 µM) | 1 (≈ 2.41 µM) | 4 (≈ 9.65 µM) | 2 (≈ 4.83 µM) | 2 (≈ 4.83 µM) | 1 (≈ 2.41 µM) | 2 (≈ 4.83 µM) |
| CC(=O)NC[C@H]1CN(c2ccc(N3CC=C(c4conc4C#N)CC3)c(F)c2)C(=O)O1 | 2 (≈ 4.7 µM) | 2 (≈ 4.7 µM) | 2 (≈ 4.7 µM) | 2 (≈ 4.7 µM) | 2 (≈ 4.7 µM) | 1 (≈ 2.35 µM) | 2 (≈ 4.7 µM) | 1 (≈ 2.35 µM) | 1 (≈ 2.35 µM) | 0.5 (≈ 1.18 µM) | 4 (≈ 9.4 µM) |
| CC(=O)NC[C@H]1CN(c2ccc(N3CC=C(c4oncc4C(F)(F)F)CC3)c(F)c2)C(=O)O1 | > 64 | > 64 | > 64 | > 64 | > 64 | > 64 | > 64 | > 64 | – | > 64 | > 64 |
| CC(=O)NC[C@H]1CN(c2ccc(N3CC=C(c4oncc4Cl)CC3)c(F)c2)C(=O)O1 | 32 (≈ 73.6 µM) | 64 (≈ 147 µM) | 64 (≈ 147 µM) | 32 (≈ 73.6 µM) | 32 (≈ 73.6 µM) | 8 (≈ 18.4 µM) | 32 (≈ 73.6 µM) | 8 (≈ 18.4 µM) | 4 (≈ 9.2 µM) | 8 (≈ 18.4 µM) | 16 (≈ 36.8 µM) |
| CCOC(=O)c1cnoc1C1=CCN(c2ccc(N3C[C@H](CNC(C)=O)OC3=O)cc2F)CC1 | 8 (≈ 16.9 µM) | 16 (≈ 33.9 µM) | 8 (≈ 16.9 µM) | 16 (≈ 33.9 µM) | 8 (≈ 16.9 µM) | 4 (≈ 8.47 µM) | 4 (≈ 8.47 µM) | 8 (≈ 16.9 µM) | 4 (≈ 8.47 µM) | 4 (≈ 8.47 µM) | 16 (≈ 33.9 µM) |
| CC(=O)NC[C@H]1CN(c2ccc(N3CC=C(c4oncc4C#N)CC3)c(F)c2)C(=O)O1 | 4 (≈ 9.4 µM) | 4 (≈ 9.4 µM) | 4 (≈ 9.4 µM) | 4 (≈ 9.4 µM) | 4 (≈ 9.4 µM) | 1 (≈ 2.35 µM) | 4 (≈ 9.4 µM) | 2 (≈ 4.7 µM) | 2 (≈ 4.7 µM) | 1 (≈ 2.35 µM) | 4 (≈ 9.4 µM) |
| CC(=O)NC[C@H]1CN(c2ccc(N3CC=C(c4oncc4C(N)=O)CC3)c(F)c2)C(=O)O1 | 1 (≈ 2.26 µM) | 1 (≈ 2.26 µM) | 1 (≈ 2.26 µM) | 1 (≈ 2.26 µM) | 1 (≈ 2.26 µM) | 0.5 (≈ 1.13 µM) | 0.5 (≈ 1.13 µM) | 0.5 (≈ 1.13 µM) | 0.5 (≈ 1.13 µM) | 0.5 (≈ 1.13 µM) | 1 (≈ 2.26 µM) |
| CC(=O)NC[C@H]1CN(c2ccc(N3CCOCC3)c(F)c2)C(=O)O1 [LINEZOLID] | 2 (≈ 5.93 µM) | – | – | 2 (≈ 5.93 µM) | 2 (≈ 5.93 µM) | 0.5 (≈ 1.48 µM) | – | 0.5 (≈ 1.48 µM) | 0.5 (≈ 1.48 µM) | 0.5 (≈ 1.48 µM) | 1 (≈ 2.96 µM) |
| CN[C@H](CC(C)C)C(=O)N[C@H]1C(=O)N[C@@H](CC(N)=O)C(=O)N[C@H]2C(=O)N[C@H]3C(=O)N[C@H](C(=O)N[C@H](C(=O)O)c4cc(O)cc(O)c4-c4cc3ccc4O)[C@H](O)c3ccc(c(Cl)c3)Oc3cc2cc(c3O[C@@H]2O[C@H](CO)[C@@H](O)[C@H](O)[C@H]2O[C@H]2C[C@](C)(N)[C@H](O)[C@H](C)O2)Oc2ccc(cc2Cl)[C@H]1O [VANCOMYCIN] | > 64 | – | – | 64 (≈ 44.2 µM) | > 64 | – | – | – | – | – | – |
